Assay results from the supplement of paper PMC10307832.

Each cell line was assayed with C[C@]1(c2nc3c(C(N)=O)cccc3[nH]2)CCCN1 [Veliparib] + CC(C)C[C@H](NC(=O)[C@H](Cc1ccccc1)NC(=O)c1cnccn1)B(O)O [Bortezomib] (partner 0.002 µM) (assay: relative viability (nuclei count vs DMSO), 5 days (fraction); higher = more cells survive). Settings: first compound 0.02 µM.
Outline: (§1)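 Values are medians from duplicate plates. Each reflects relative viability, defined as the nuclei count of treated wells over that of vehicle wells. Lung cancer cell lines in 1536-well plates were pin-tool dosed one day after seeding with one drug alone or with a fixed anchor-drug dose plus five library-drug doses (not always all listed) in √10 steps, then fixed, stained and imaged at 4× after 5 days.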

Cell Line	relative viability
NCI-H1651	0.924
COR-L23	0.92
HCC-827	1.02
LCLC-103H	0.822
RERF-LC-KJ	1.07
NCI-H3122	1.01
BEN	0.676
UMC-11	0.592
NCI-H2085	0.655
A-427	0.969
NCI-H838	0.905
201T	1.09
NCI-H2228	0.924
LOU-NH91	0.486
NCI-H1666	0.879
NCI-H650	0.635
NCI-H1993	0.994
NCI-H647	1.23
NCI-H2126	1.03
NCI-H1755	0.888
PC-3 [JPC-3]	0.821
NCI-H2087	0.563
NCI-H441	0.472

Same assay, conditions: first compound 0.06325 µM

Cell Line	relative viability
LXF-289	0.975
LC-2-ad	0.987
NCI-H1651	0.883
COR-L23	0.991
HCC-827	0.914
LCLC-103H	0.963
RERF-LC-KJ	0.928
NCI-H3122	0.99
BEN	0.739
UMC-11	0.727
LCLC-97TM1	0.269
NCI-H2085	0.915
A-427	0.936
NCI-H838	0.79
201T	1.07
NCI-H2228	0.844
LOU-NH91	0.387
NCI-H1666	0.599
NCI-H650	0.675
ChaGo-K-1	0.863
NCI-H1993	1.31
NCI-H647	1
NCI-H2126	1.07
NCI-H1755	0.892
PC-3 [JPC-3]	0.789
NCI-H2087	0.819
NCI-H441	0.293

Same assay, conditions: first compound 0.2 µM

Cell Line	relative viability
LXF-289	1
LC-2-ad	0.985
NCI-H1651	0.908
COR-L23	1.01
HCC-827	1.01
LCLC-103H	1.01
RERF-LC-KJ	1.15
NCI-H3122	0.968
BEN	0.827
UMC-11	0.668
LCLC-97TM1	0.554
NCI-H2085	0.898
A-427	0.929
NCI-H838	0.926
201T	1.06
NCI-H2228	1
LOU-NH91	0.511
NCI-H1666	0.81
NCI-H650	0.64
ChaGo-K-1	1.09
NCI-H1993	1.13
NCI-H647	0.847
NCI-H2126	1.18
NCI-H1755	0.924
PC-3 [JPC-3]	0.85
NCI-H2087	0.81
NCI-H441	0.533

Same assay, conditions: first compound 0.6325 µM

Cell Line	relative viability
LXF-289	0.959
LC-2-ad	0.944
NCI-H1651	0.918
COR-L23	0.966
HCC-827	1.13
LCLC-103H	1.05
RERF-LC-KJ	1.02
NCI-H3122	0.998
BEN	0.87
UMC-11	0.685
LCLC-97TM1	1.12
NCI-H2085	1.07
A-427	0.99
NCI-H838	0.686
201T	1.18
NCI-H2228	0.843
LOU-NH91	0.464
NCI-H1666	0.666
NCI-H650	0.744
ChaGo-K-1	1.05
NCI-H1993	1.03
NCI-H647	0.985
NCI-H2126	1.14
NCI-H1755	0.954
PC-3 [JPC-3]	0.815
NCI-H2087	0.709
NCI-H441	0.365

Same assay, conditions: first compound 2 µM

Cell Line	relative viability
LXF-289	1.02
LC-2-ad	1.05
NCI-H1651	0.876
COR-L23	0.967
HCC-827	1.13
LCLC-103H	0.933
RERF-LC-KJ	1.05
NCI-H3122	0.938
BEN	0.78
UMC-11	0.667
LCLC-97TM1	0.834
NCI-H2085	0.862
A-427	0.959
NCI-H838	0.848
201T	1.08
NCI-H2228	0.999
LOU-NH91	0.476
NCI-H1666	0.875
NCI-H650	0.565
ChaGo-K-1	0.804
NCI-H1993	1.06
NCI-H647	0.965
NCI-H2126	1.06
NCI-H1755	0.868
PC-3 [JPC-3]	0.785
NCI-H2087	0.838
NCI-H441	0.401

What follows are cell lines tested with C[C@]1(c2nc3c(C(N)=O)cccc3[nH]2)CCCN1 [Veliparib] + Cc1nc(Nc2ncc(C(=O)Nc3c(C)cccc3Cl)s2)cc(N2CCN(CCO)CC2)n1 [Dasatinib] (partner 0.075 µM) in the same assay as above. Settings: first compound 0.02 µM.
Outline: as §1

Cell Line	relative viability
LXF-289	0.251
NCI-H1651	0.296
COR-L23	0.428
HCC-827	0.362
LCLC-103H	0.5
RERF-LC-KJ	0.574
NCI-H3122	0.674
BEN	0.232
UMC-11	0.505
LCLC-97TM1	0.848
NCI-H2085	0.239
NCI-H838	0.269
201T	0.529
NCI-H2228	0.51
LOU-NH91	0.529
NCI-H1666	0.725
NCI-H650	0.378
ChaGo-K-1	0.336
NCI-H1993	0.496
NCI-H647	0.164
NCI-H2126	0.618
NCI-H1755	0.392
PC-3 [JPC-3]	1.04
NCI-H2087	0.738
NCI-H441	0.502

Same assay, conditions: first compound 0.06325 µM

Cell Line	relative viability
LXF-289	0.2
LC-2-ad	0.423
NCI-H1651	0.403
COR-L23	0.434
HCC-827	0.302
LCLC-103H	0.469
RERF-LC-KJ	0.865
NCI-H3122	0.792
BEN	0.292
UMC-11	0.451
LCLC-97TM1	0.845
NCI-H2085	0.213
A-427	0.714
NCI-H838	0.287
201T	0.572
NCI-H2228	0.509
LOU-NH91	0.522
NCI-H1666	0.846
NCI-H650	0.372
ChaGo-K-1	0.615
NCI-H1993	0.571
NCI-H647	0.187
NCI-H2126	0.539
NCI-H1755	0.37
PC-3 [JPC-3]	0.93
NCI-H2087	0.731
NCI-H441	0.572

Same assay, conditions: first compound 0.2 µM

Cell Line	relative viability
LXF-289	0.251
LC-2-ad	0.669
NCI-H1651	0.383
COR-L23	0.361
HCC-827	0.266
LCLC-103H	0.449
RERF-LC-KJ	0.845
NCI-H3122	0.84
BEN	0.377
UMC-11	0.483
LCLC-97TM1	0.895
NCI-H2085	0.262
A-427	0.699
NCI-H838	0.256
201T	0.537
NCI-H2228	0.508
LOU-NH91	0.537
NCI-H1666	0.766
NCI-H650	0.414
ChaGo-K-1	0.566
NCI-H1993	0.537
NCI-H647	0.243
NCI-H2126	0.612
NCI-H1755	0.401
PC-3 [JPC-3]	0.967
NCI-H2087	0.886
NCI-H441	0.591

Same assay, conditions: first compound 0.6325 µM

Cell Line	relative viability
LXF-289	0.204
LC-2-ad	0.556
NCI-H1651	0.4
COR-L23	0.425
HCC-827	0.205
LCLC-103H	0.495
RERF-LC-KJ	0.767
NCI-H3122	0.766
BEN	0.361
UMC-11	0.452
LCLC-97TM1	0.653
NCI-H2085	0.252
A-427	0.657
NCI-H838	0.246
201T	0.614
NCI-H2228	0.357
LOU-NH91	0.544
NCI-H1666	0.753
NCI-H650	0.369
ChaGo-K-1	0.624
NCI-H1993	0.64
NCI-H647	0.165
NCI-H2126	0.658
NCI-H1755	0.375
PC-3 [JPC-3]	0.985
NCI-H2087	0.788
NCI-H441	0.558

Same assay, conditions: first compound 2 µM

Cell Line	relative viability
LXF-289	0.224
LC-2-ad	0.388
NCI-H1651	0.348
COR-L23	0.471
HCC-827	0.364
LCLC-103H	0.482
RERF-LC-KJ	0.755
NCI-H3122	0.572
BEN	0.266
UMC-11	0.542
LCLC-97TM1	0.864
NCI-H2085	0.246
A-427	0.539
NCI-H838	0.326
201T	0.52
NCI-H2228	0.467
LOU-NH91	0.53
NCI-H1666	0.757
NCI-H650	0.423
ChaGo-K-1	0.584
NCI-H1993	0.522
NCI-H647	0.192
NCI-H2126	0.668
NCI-H1755	0.413
PC-3 [JPC-3]	0.975
NCI-H2087	0.942
NCI-H441	0.691
